How the values were obtained:
[1] = relative permittivity at various frequencies (dimensionless); xn = mol fraction of the nth substance listed; conditions: Liquid, Frequency=1 MHz, Parallel plate capacitor
[2] = xn = mol fraction of the nth substance listed; conditions: Liquid, Vibrating tube method

COCCOC [1,2-dimethoxyethane] + CCCCCCCC
97.1 kPa
Conditions	mass density, [2] [kg/m3]	relative permittivity, [1]
288.15 K, x2 = 0	872.06	7.41
288.15 K, x2 = 0.0493	857.73	–
288.15 K, x2 = 0.0502	–	6.79
288.15 K, x2 = 0.1011	843.79	–
288.15 K, x2 = 0.1035	–	6.21
288.15 K, x2 = 0.2005	–	5.31
288.15 K, x2 = 0.2032	819.39	–
288.15 K, x2 = 0.3015	–	4.54
288.15 K, x2 = 0.3036	798.48	–
288.15 K, x2 = 0.4019	780.49	–
288.15 K, x2 = 0.4024	–	3.92
288.15 K, x2 = 0.4964	–	3.45
288.15 K, x2 = 0.4992	764.69	–
288.15 K, x2 = 0.6022	–	3.01
288.15 K, x2 = 0.6046	749.52	–
288.15 K, x2 = 0.7031	–	2.67
288.15 K, x2 = 0.707	736.47	–
288.15 K, x2 = 0.8035	–	2.38
288.15 K, x2 = 0.8044	725.4	–
288.15 K, x2 = 0.9038	–	2.15
288.15 K, x2 = 0.9082	714.88	–
288.15 K, x2 = 0.9495	711.04	–
288.15 K, x2 = 0.9511	–	2.06
298.15 K, x2 = 0	861.17	7.07
298.15 K, x2 = 0.0487	–	6.5
298.15 K, x2 = 0.0493	847.03	–
298.15 K, x2 = 0.1004	–	5.97
298.15 K, x2 = 0.1011	833.26	–
298.15 K, x2 = 0.2032	809.21	–
298.15 K, x2 = 0.204	–	5.07
298.15 K, x2 = 0.3008	–	4.39
298.15 K, x2 = 0.3036	788.62	–
298.15 K, x2 = 0.4019	770.94	–
298.15 K, x2 = 0.4064	–	3.78
298.15 K, x2 = 0.4992	755.41	–
298.15 K, x2 = 0.5043	–	3.32
298.15 K, x2 = 0.6046	740.56	2.93
298.15 K, x2 = 0.7038	–	2.62
298.15 K, x2 = 0.707	727.79	–
298.15 K, x2 = 0.8039	–	2.35
298.15 K, x2 = 0.8044	716.95	–
298.15 K, x2 = 0.9008	–	2.14
298.15 K, x2 = 0.9082	706.67	–
298.15 K, x2 = 0.9495	702.91	–
298.15 K, x2 = 0.9516	–	2.04
308.15 K, x2 = 0	850.13	6.75
308.15 K, x2 = 0.0493	836.17	–
308.15 K, x2 = 0.0513	–	6.2
308.15 K, x2 = 0.1011	822.58	–
308.15 K, x2 = 0.1017	–	5.71
308.15 K, x2 = 0.203	–	4.88
308.15 K, x2 = 0.2032	798.9	–
308.15 K, x2 = 0.3025	–	4.23
308.15 K, x2 = 0.3036	778.63	–
308.15 K, x2 = 0.4019	761.25	–
308.15 K, x2 = 0.4021	–	3.69
308.15 K, x2 = 0.4992	746.01	–
308.15 K, x2 = 0.5006	–	3.25
308.15 K, x2 = 0.6029	–	2.87
308.15 K, x2 = 0.6046	731.48	–
308.15 K, x2 = 0.7028	–	2.57
308.15 K, x2 = 0.707	718.98	–
308.15 K, x2 = 0.802	–	2.32
308.15 K, x2 = 0.8044	708.4	–
308.15 K, x2 = 0.9027	–	2.11
308.15 K, x2 = 0.9082	698.35	–
308.15 K, x2 = 0.9493	–	2.03
308.15 K, x2 = 0.9495	694.71	–

COCCOC [1,2-dimethoxyethane] + CCCCCCCCCCCC
97 kPa
Conditions	mass density, [2] [kg/m3]	relative permittivity, [1]
288.15 K, x2 = 0	872.06	7.41
288.15 K, x2 = 0.05	–	6.6
288.15 K, x2 = 0.0501	856.95	–
288.15 K, x2 = 0.101	843.87	–
288.15 K, x2 = 0.1013	–	5.92
288.15 K, x2 = 0.2007	–	4.89
288.15 K, x2 = 0.2009	823.2	–
288.15 K, x2 = 0.3011	807.11	–
288.15 K, x2 = 0.3016	–	4.13
288.15 K, x2 = 0.402	–	3.57
288.15 K, x2 = 0.4022	794.1	–
288.15 K, x2 = 0.5014	783.69	–
288.15 K, x2 = 0.5015	–	3.15
288.15 K, x2 = 0.6016	–	2.81
288.15 K, x2 = 0.6019	774.99	–
288.15 K, x2 = 0.6998	–	2.53
288.15 K, x2 = 0.7001	767.94	–
288.15 K, x2 = 0.8049	761.62	–
288.15 K, x2 = 0.8051	–	2.33
288.15 K, x2 = 0.9011	756.69	–
288.15 K, x2 = 0.9019	–	2.16
288.15 K, x2 = 0.9514	754.42	–
288.15 K, x2 = 0.9515	–	2.1
298.15 K, x2 = 0	861.17	7.07
298.15 K, x2 = 0.0499	846.45	–
298.15 K, x2 = 0.05	–	6.31
298.15 K, x2 = 0.1013	833.6	–
298.15 K, x2 = 0.102	–	5.66
298.15 K, x2 = 0.2014	–	4.71
298.15 K, x2 = 0.2016	813.45	–
298.15 K, x2 = 0.3016	–	4
298.15 K, x2 = 0.3019	797.83	–
298.15 K, x2 = 0.4011	–	3.48
298.15 K, x2 = 0.4015	785.4	–
298.15 K, x2 = 0.5059	774.85	–
298.15 K, x2 = 0.5061	–	3.06
298.15 K, x2 = 0.6021	766.88	–
298.15 K, x2 = 0.6047	–	2.75
298.15 K, x2 = 0.7021	760.01	–
298.15 K, x2 = 0.7033	–	2.51
298.15 K, x2 = 0.8048	754.06	–
298.15 K, x2 = 0.8055	–	2.31
298.15 K, x2 = 0.9024	–	2.15
298.15 K, x2 = 0.9025	749.21	–
298.15 K, x2 = 0.9491	747.21	–
298.15 K, x2 = 0.9498	–	2.09
308.15 K, x2 = 0	850.13	6.75
308.15 K, x2 = 0.0495	835.93	–
308.15 K, x2 = 0.05	–	6.04
308.15 K, x2 = 0.0982	824.01	–
308.15 K, x2 = 0.1018	–	5.44
308.15 K, x2 = 0.2021	803.62	–
308.15 K, x2 = 0.2026	–	4.53
308.15 K, x2 = 0.2982	789.08	–
308.15 K, x2 = 0.3027	–	3.87
308.15 K, x2 = 0.4018	776.58	–
308.15 K, x2 = 0.4043	–	3.38
308.15 K, x2 = 0.5024	766.76	–
308.15 K, x2 = 0.505	–	3
308.15 K, x2 = 0.6046	758.6	–
308.15 K, x2 = 0.6068	–	2.7
308.15 K, x2 = 0.6951	752.57	–
308.15 K, x2 = 0.7013	–	2.48
308.15 K, x2 = 0.8031	746.52	–
308.15 K, x2 = 0.806	–	2.28
308.15 K, x2 = 0.8975	–	2.14
308.15 K, x2 = 0.899	741.95	–
308.15 K, x2 = 0.9502	739.81	–
308.15 K, x2 = 0.9512	–	2.07
